Source: patent publication US20230381327A1, “REACTIVE CONJUGATES” (DEBIOPHARM RESEARCH & MANUFACTURING S.A., priority 2020, published 2023)
Each block holds one molecule with its values, some of them ahead of it. Residues, ends and D or L forms follow the SMILES beside them.

Key:
[1] = biological target: Fc region of trastuzumab (Homo sapiens, UniProt P01857); assay: Competitive FP binding assay against Fc-III-FAM
Procedure: All sample preparations were done in PBS pH 7.0 containing 0.05% Tween. Each experiment was performed in triplicate.

[2] = biological target: T1, trastuzumab (Homo sapiens, UniProt P01857, D239E/L241M); assay: Preparation of trastuzumab-payload conjugates in solution, HRMS analysis (DoC, Fc/F(ab)2 selectivity); conditions: 10 eq of peptide-payload conjugate
T1 construct: purchased Roche Herceptin®
Procedure: Deglycosylation of the conjugates was achieved by incubating 1 unit of Endo S per μg of conjugate in the formulation buffer (37° C.-1 hour).
The average Degree of Conjugation (DoC) values were calculated using the HRMS data and the Equation 1 (Eq. 1) below.
where I(DoCk) is the relative peak intensity of conjugates with k add-on molecules per antibody.
After payload conjugation, the reaction buffer was diluted with 64 μL of 0.1 M glycine pH 2.5. The antibody conjugate was then purified by gel filtration chromatography using a pre-equilibrated with 0.1 M glycine pH 2.5 Bio-spin P-30 Column (bed height: 3.7 cm, overall length: 5 cm; available from Bio-Rad, USA) and then eluted with 0.1M glycine pH 2.5. The purified antibody conjugate fractions were neutralized with 1M PBS pH 8.5 (10 μL).
(§1) The conjugation of the payload moiety to trastuzumab was evaluated by HRMS analysis (as described above). The payload loading ratios (selectivity) between Fc and F(ab)2 were evaluated by digesting the conjugates with GingisKhan protease (1 unit per μg of antibody conjugate in the presence of 2 mM cysteine, 0.1M Tris, pH 8.0 for 1 hour at 37° C.), and subsequent HRMS analysis (as described above). The Degree of Conjugation (DoC) of the trastuzumab-payload conjugates was evaluated based on the results of the HRMS analysis (as described above).
(§2) DoC Fc=DoC−DoC F(ab)2, Selectivity Fc/F(ab)2=(DoC−DoC F(ab)2)/Doc (Fab)2

[3] = biological target: T2, rituximab (Homo sapiens, UniProt P01857); assay: Antibody-payload conjugation, HRMS analysis (Example 12)
T2 construct: purchased Roche RITUXAN®
Procedure: To prepare the trastuzumab-payload conjugates, 2 eq of reactive conjugate prepared in Examples 5-8, 10 (2.4 nmol) in DMSO (2-7% v/v in final reaction mixture) was added to a solution of trastuzumab (1 eq, 1.2 nmol; commercial trastuzumab Herceptin® available from Roche which was buffer-exchanged into phosphate-buffered saline (PBS) prior to the conjugation) diluted in 50 mM NaHCO3 pH 9.0 (20-28 μL) and the reaction mixture (36 μL) was stirred at room temperature for 2 hours.
as §1
The propensity of the reactive conjugates of the present invention to react with different antibodies was evaluated using commercially available atezolizumab, rituximab, trastuzumab emtansine, brentuximab-vedotin, aflibercept, panitumumab, pembrolizumab and Fc region only. Antibody-DOTA/FITC conjugates were prepared according to the same procedure as described in Example 11 above using peptide conjugates (indicated in Table 19) and the aforementioned antibodies.
as §2

- binding to the Fc region of trastuzumab compared to Fc-III (in words) [1]: moderate binding efficiency
Structure (SMILES): CC(=O)N[C@@H](CC(=O)O)C(=O)N[C@H]1CSSC[C@@H](C(=O)N[C@H](C(N)=O)[C@@H](C)O)NC(=O)[C@H](Cc2c[nH]c3ccccc23)NC(=O)[C@H](CCCCN)NC(=O)[C@H](CC(C)C)NC(=O)[C@H](CCC(=O)O)NC(=O)CNC(=O)[C@H](CC(C)C)NC(=O)[C@H](Cc2c[nH]cn2)NC(=O)[C@H](Cc2c[nH]c3ccccc23)NC(=O)[C@H](C)NC1=O [Compound V10K] (HELM PEPTIDE1{[ac].D.C.A.W.H.L.G.E.L.K.W.C.T.[am]}$PEPTIDE1,PEPTIDE1,3:R3-13:R3$$$V2.0)

- binding to the Fc region of trastuzumab compared to Fc-III (in words) [1]: moderate binding efficiency
Structure (SMILES): CC(=O)N[C@@H](CC(=O)O)C(=O)N[C@H]1CSSC[C@@H](C(=O)N[C@H](C(N)=O)[C@@H](C)O)NC(=O)[C@H](Cc2c[nH]c3ccccc23)NC(=O)[C@H](C(C)C)NC(=O)[C@H](CC(C)C)NC(=O)[C@H](CCC(=O)O)NC(=O)CNC(=O)[C@H](CCCCN)NC(=O)[C@H](Cc2c[nH]cn2)NC(=O)[C@H](Cc2c[nH]c3ccccc23)NC(=O)[C@H](C)NC1=O [Compound L6K] (HELM PEPTIDE1{[ac].D.C.A.W.H.K.G.E.L.V.W.C.T.[am]}$PEPTIDE1,PEPTIDE1,3:R3-13:R3$$$V2.0)

- binding to the Fc region of trastuzumab compared to Fc-III (in words) [1]: significant impact on peptide binding
Structure (SMILES): CC(=O)N[C@@H](CC(=O)O)C(=O)N[C@H]1CSSC[C@@H](C(=O)N[C@H](C(N)=O)[C@@H](C)O)NC(=O)[C@H](Cc2c[nH]c3ccccc23)NC(=O)[C@H](C(C)C)NC(=O)[C@H](CC(C)C)NC(=O)[C@H](CCC(=O)O)NC(=O)CNC(=O)[C@H](CC(C)C)NC(=O)[C@H](Cc2c[nH]cn2)NC(=O)[C@H](CCCCN)NC(=O)[C@H](C)NC1=O [Compound W4K] (HELM PEPTIDE1{[ac].D.C.A.K.H.L.G.E.L.V.W.C.T.[am]}$PEPTIDE1,PEPTIDE1,3:R3-13:R3$$$V2.0)

- binding to the Fc region of trastuzumab compared to Fc-III (in words) [1]: significant impact on peptide binding
Structure (SMILES): CC(=O)N[C@@H](CC(=O)O)C(=O)N[C@H]1CSSC[C@@H](C(=O)N[C@H](C(N)=O)[C@@H](C)O)NC(=O)[C@H](CCCCN)NC(=O)[C@H](C(C)C)NC(=O)[C@H](CC(C)C)NC(=O)[C@H](CCC(=O)O)NC(=O)CNC(=O)[C@H](CC(C)C)NC(=O)[C@H](Cc2c[nH]cn2)NC(=O)[C@H](Cc2c[nH]c3ccccc23)NC(=O)[C@H](C)NC1=O [Compound W11K] (HELM PEPTIDE1{[ac].D.C.A.W.H.L.G.E.L.V.K.C.T.[am]}$PEPTIDE1,PEPTIDE1,3:R3-13:R3$$$V2.0)

More lines, now with the values behind:

Structure (SMILES): CC(=O)N[C@@H](CC(=O)O)C(=O)N[C@H]1CSSC[C@@H](C(=O)N[C@H](C(N)=O)[C@@H](C)O)NC(=O)[C@H](Cc2c[nH]c3ccccc23)NC(=O)[C@H](C(C)C)NC(=O)[C@H](CC(C)C)NC(=O)[C@H](CCC(=O)O)NC(=O)CNC(=O)[C@H](CC(C)C)NC(=O)[C@H](Cc2c[nH]cn2)NC(=O)[C@H](Cc2c[nH]c3ccccc23)NC(=O)[C@H](CCCCN)NC1=O [Compound A3K] (HELM PEPTIDE1{[ac].D.C.K.W.H.L.G.E.L.V.W.C.T.[am]}$PEPTIDE1,PEPTIDE1,3:R3-13:R3$$$V2.0)
- binding to the Fc region of trastuzumab compared to Fc-III (in words) [1]: moderate binding efficiency

Structure (SMILES): O=C(OCCOCCNC(=S)Nc1ccc2c(c1)C(=O)OC21c2ccc(O)cc2Oc2cc(O)ccc21)Oc1ccc(C(=O)O)cc1 [Carbonate-FITC, 4-[2-[2-[(3′,6′-dihydroxy-3-oxo-spiro [isobenzofuran-1,9′-xanthene]-5-yl)carbamothioylamino]ethoxy]ethoxycarbonyloxy]benzoic acid]
- DoC [2]: 0.83
- DoC F(ab)2 [2]: 0.54
- DoC Fc [2]: 0.29
- Labeled mAb (%) [2]: 59%
- Selectivity Fc/F(ab)2 [2]: 0.5
- DoC F(ab)2 [3]: 0.20
- Selectivity Fc/F(ab)2 [3]: 3.2
- DoC ([3]; procedure of Example 11): 0.84
- Labeled mAb (%) ([3]; procedure of Example 11): 59%
- DoC Fc ([3]; some values extrapolated as DoC − DoC F(ab)2): 0.64

Structure (SMILES): CC(=O)N[C@@H](CC(=O)O)C(=O)N[C@H]1CSSC[C@@H](C(=O)N[C@H](C(N)=O)[C@@H](C)O)NC(=O)[C@H](Cc2c[nH]c3ccccc23)NC(=O)[C@H](C(C)C)NC(=O)[C@H](CC(C)C)NC(=O)[C@H](CCC(=O)O)NC(=O)CNC(=O)[C@H](CC(C)C)NC(=O)[C@H](CCCCN)NC(=O)[C@H](Cc2c[nH]c3ccccc23)NC(=O)[C@H](C)NC1=O [Compound H5K] (HELM PEPTIDE1{[ac].D.C.A.W.K.L.G.E.L.V.W.C.T.[am]}$PEPTIDE1,PEPTIDE1,3:R3-13:R3$$$V2.0)
- binding to the Fc region of trastuzumab compared to Fc-III (in words) [1]: moderate binding efficiency
